Data: patent US20190002436A1, “RESPIRATORY SYNCYTIAL VIRUS INHIBITORS” (MEDIVIR AB, priority 2015, published 2019)
pEC50: −log10 of the molar value. Where two headings read alike, the source gives them in different places.

Tested on: RSV (Long)
Assay: RSV cytopathic effect (CPE)-based viral replication assay
Type: cell-based, respiratory syncytial virus (RSV)
Settings: read-out: EC50 (nm)
Procedure, shortened: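 HEp-2 cells, 2,500 per well in DMEM with 2% heat-inactivated FBS, treated with 10-point compound dilutions and infected with RSV Long at MOI 0.015. After 3 days at 37 °C, 5% CO2, viability read by CellTiter-Glo luminescence; EC50 derived from CPE data.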

[1] = human respiratory syncytial virus, HEp-2, 72 h, HEp-2 cells infected with RSV Long at MOI 0.015, 3 days at 37° C., cell viability by CellTiter-Glo luminescence
[2] = human respiratory syncytial virus, HEp-2, 72 h

| Compound | pEC50 [1] | further results |
| --- | --- | --- |
| CNC(=O)N1CC2(C1)C(=O)N(Cc1ncc3ccccc3c1CCCCO)c1ccccc12 [Example 38, 1′-((4-(4-hydroxybutyl)isoquinolin-3-yl)methyl)-N-methyl-2′-oxospiro[azetidine-3,3′-indoline]-1-carboxamide] | 8.19 | – |
| COC(=O)N1CC2(C1)C(=O)N(Cc1ncc3ccccc3c1-c1ccc(F)nc1F)c1ccccc12 [Example 96, Methyl 1′-((4-(2,6-difluoropyridin-3-yl)isoquinolin-3-yl)methyl)-2′-oxospiro[azetidine-3,3′-indoline]-1-carboxylate] | 8.66 | – |
| NC1(C(=O)N2CCC3(CC2)C(=O)N(Cc2ncc4ccccc4c2-c2nccs2)c2cnccc23)CC1 [Example 2012] | 6.42 | – |
| NCCCC(=O)N1CC2(C1)C(=O)N(Cc1ncc3ccccc3c1-c1cccnc1)c1ccccc12 [Example 151, 1-(4-Aminobutanoyl)-1′-((4-(pyridin-3-yl)isoquinolin-3-yl)methyl)spiro[azetidine-3,3′-indolin]-2′-one] | 8.57 | – |
| O=C1N(Cc2ncc3ccccc3c2CCCCO)c2cnccc2C12CC2 [Example 49, 1′-((4-(4-hydroxybutyl)isoquinolin-3-yl)methyl)spiro[cyclopropane-1,3′-pyrrolo[2,3-c]pyridin]-2′(1′H)-one] | 7.74 | – |
| NC(=O)c1ccc(-c2c(CN3C(=O)C4(CCN(C(=O)[C@@H](N)CO)CC4)c4ccncc43)ncc3ccccc23)cn1 [Example 2032] | 8.57 | – |
| CC(C)(C)OC(=O)N1CC2(C1)C(=O)N(Cc1ncc3ccccc3c1CCCCO)c1ccccc12 [Example 36c, tert-butyl 1′-((4-(4-hydroxybutyl)isoquinolin-3-yl)methyl)-2′-oxospiro[azetidine-3,3′-indoline]-1-carboxylate] | 8.66 | – |
| CC1(S(=O)(=O)N2CCC3(CC2)C(=O)N(Cc2ncc4ccccc4c2CCCCO)c2cnccc23)CC1 [Example 54, 1′-((4-(4-hydroxybutyl)isoquinolin-3-yl)methyl)-1-((1-methylcyclopropyl)sulfonyl)spiro[piperidine-4,3′-pyrrolo[2,3-c]pyridin]-2′(1′H)-one] | 8.22 | – |
| O=c1n(Cc2ncc3ccccc3c2CCCCO)c2cnccc2n1CC(F)(F)F [Example 3c, 3-((4-(4-hydroxybutyl)isoquinolin-3-yl)methyl)-1-(2,2,2-trifluoroethyl)-1H-imidazo[4,5-c]pyridin-2(3H)-one] | 7.64 | – |
| CS(=O)(=O)N1CC2(C1)C(=O)N(Cc1ncc3ccccc3c1-c1ccc(F)cc1)c1ccccc12 [Example 74] | 8.24 | – |
| CS(=O)(=O)N1CCC2(CC1)C(=O)N(Cc1ncc3ccccc3c1-c1cc[nH]c1)c1cnccc12 [Example 2023] | 7.37 | – |
| COC(=O)N1CCC2(CC1)C(=O)N(Cc1ncc3cc(Cl)ccc3c1-c1cccnc1)c1cnccc12 [Example 164, Methyl 1′-((7-chloro-4-(pyridin-3-yl)isoquinolin-3-yl)methyl)-2′-oxo-1′,2′-dihydrospiro[piperidine-4,3′-pyrrolo[2,3-c]pyridine]-1-carboxylate] | 8.80 | – |
| CS(=O)(=O)N1CCC2(CC1)C(=O)N(Cc1ncc3ccccc3c1-c1cnc(C(N)=O)cn1)c1cnccc12 [Example 2017] | 7.47 | – |
| CS(=O)(=O)N1CC2(C1)C(=O)N(Cc1ncc3ccccc3c1-c1ccc(C#N)cc1)c1ccccc12 [Example 76] | 8.60 | – |
| O=C1N(Cc2ncc3ccccc3c2-c2ccc(F)nc2)c2ccccc2C12CC(NCCF)C2 (single isomer, unassigned) [Example 87-1, 3-((2-fluoroethyl)amino)-1′-((4-(6-fluoropyridin-3-yl)isoquinolin-3-yl)methyl)spiro[cyclobutane-1,3′-indolin]-2′-one] | – | pEC50 (HEp-2 cells infected with RSV Long at MOI 0.015, 3 days at 37° C., cell viability by CellTiter-Glo luminescence): 7.68 |
| NC1(C(=O)N2CC3(C2)C(=O)N(Cc2ncc4ccccc4c2-c2ccc(S(N)(=O)=O)nc2)c2ccccc23)CC1 [Example 124, 5-(3-((1-(1-Aminocyclopropanecarbonyl)-2′-oxospiro[azetidine-3,3′-indolin]-1′-yl)methyl)isoquinolin-4-yl)pyridine-2-sulfonamide] | 8.01 | – |
| O=C(OC1CC1)N1CCC(n2c(=O)n(Cc3ncc4ccccc4c3CCCCO)c3cnccc32)CC1 [Example 35, cyclopropyl 4-(3-((4-(4-hydroxybutyl)isoquinolin-3-yl)methyl)-2-oxo-2,3-dihydro-1H-imidazo[4,5-c]pyridin-1-yl)piperidine-1-carboxylate] | 8.62 | – |
| COC(=O)N1CC2(C1)C(=O)N(Cc1ncc3ccccc3c1-c1ccc(F)nc1)c1ccccc12 [Example 73] | 8.80 | – |
| O=c1n(Cc2ncc3ccccc3c2-c2cccc(CO)c2)c2cnccc2n1C1CC1 [Example 10, 1-Cyclopropyl-3-((4-(3-(hydroxymethyl)phenyl)isoquinolin-3-yl)methyl)-1H-imidazo[4,5-c]pyridin-2(3H)-one] | 6.62 | – |
| O=c1n(Cc2ncc3ccccc3c2CCCCO)c2cnccc2n1C1CC1 [Example 1c, 1-cyclopropyl-3-((4-(4-hydroxybutyl)isoquinolin-3-yl)methyl)-1H-imidazo[4,5-c]pyridin-2(3H)-one] | 7.89 | – |
| CS(=O)(=O)N1CCC2(CC1)C(=O)N(Cc1ncc3ccccc3c1-c1cn[nH]c1)c1cnccc12 [Example 2029] | 8.59 | – |
| COC(=O)N1CCC2(CC1)C(=O)N(Cc1ncc3ccccc3c1-c1cccnc1)c1cnccc12 [Example 144, Methyl 2′-oxo-1′-((4-(pyridin-3-yl)isoquinolin-3-yl)methyl)-1′,2′-dihydrospiro[piperidine-4,3′-pyrrolo[2,3-c]pyridine]-1-carboxylate] | – | pEC50 [2]: 8.96 |
| CNC(=O)OC1CC2(C1)C(=O)N(Cc1ncc3ccccc3c1-c1ccc(C#N)nc1)c1ccccc12 (centres unmarked) [Example 89, 1′-((4-(6-Cyanopyridin-3-yl)isoquinolin-3-yl)methyl)-2′-oxospiro[cyclobutane-1,3′-indolin]-3-yl methylcarbamate] | – | pEC50 [2]: 8.24 |
| N#Cc1ccc(-c2c(CN3C(=O)C4(CN(C(=O)OCCO)C4)c4ccccc43)ncc3ccccc23)cn1 [Example 64, 2-Hydroxyethyl 1′-((4-(6-cyanopyridin-3-yl)isoquinolin-3-yl)methyl)-2′-oxospiro[azetidine-3,3′-indoline]-1-carboxylate] | 8.80 | – |
| NC(C(=O)N1CCC2(CC1)C(=O)N(Cc1ncc3ccccc3c1-c1cncs1)c1cnccc12)C(F)(F)F (centres unmarked) [Example 2040] | 8.72 | – |
| COC(=O)N1CCC(n2c(=O)n(Cc3ncc4ccccc4c3CCCCO)c3cncc(Cl)c32)CC1 [Example 15, Methyl 4-(7-chloro-3-((4-(4-hydroxybutyl)isoquinolin-3-yl)methyl)-2-oxo-2,3-dihydro-1H-imidazo[4,5-c]pyridin-1-yl)piperidine-1-carboxylate] | 8.66 | – |
| O=C(N1CC2(C1)C(=O)N(Cc1ncc3ccccc3c1-c1cccnc1)c1ccccc12)C(F)(F)F [Example 128, 1′-((4-(Pyridin-3-yl)isoquinolin-3-yl)methyl)-1-(2,2,2-trifluoroacetyl)spiro[azetidine-3,3′-indolin]-2′-one] | 7.70 | – |

The next lines start with results.

| pEC50 [1] | Compound | further results |
| --- | --- | --- |
| 8.22 | N#Cc1ccc(-c2c(CN3C(=O)C4(CCN(C(=O)C(F)(F)F)CC4)c4ccncc43)ncc3ccccc23)cn1 [Example 66-2, 5-(3-((2′-Oxo-1-(2,2,2-trifluoroacetyl)spiro[piperidine-4,3′-pyrrolo[2,3-c]pyridin]-1′(2′H)-yl)methyl)isoquinolin-4-yl)picolinonitrile] | – |
| 9.17 | COC(=O)N1CC2(C1)C(=O)N(Cc1ncc3ccccc3c1-c1cccnc1)c1ccccc12 [Example 92b, Methyl 2′-oxo-1′-((4-(pyridin-3-yl)isoquinolin-3-yl)methyl)spiro[azetidine-3,3′-indoline]-1-carboxylate] | – |
| 8.89 | NC(=O)N1CC2(C1)C(=O)N(Cc1ncc3ccccc3c1-c1ccc(S(N)(=O)=O)cc1)c1ccccc12 [Example 116b, 2′-oxo-1′-((4-(4-sulfamoylphenyl)isoquinolin-3-yl)methyl)spiro[azetidine-3,3′-indoline]-1-carboxamide] | – |
| 8.55 | COC(=O)N1CC2(C1)C(=O)N(Cc1ncc3ccccc3c1-c1ccc(C#N)nc1)c1ccccc12 [Example 44c, Methyl 1′-((4-(6-cyanopyridin-3-yl)isoquinolin-3-yl)methyl)-2′-oxospiro[azetidine-3,3′-indoline]-1-carboxylate] | – |
| 8.59 | CS(=O)(=O)N1CCC2(CC1)C(=O)N(Cc1ncc3ccccc3c1-c1ccc(C#N)nc1)c1cnccc12 [Example 66-1, 5-(3-((1-(Methylsulfonyl)-2′-oxospiro[piperidine-4,3′-pyrrolo[2,3-c]pyridin]-1′(2′H)-yl)methyl)isoquinolin-4-yl)picolinonitrile] | – |
| 8.24 | CS(=O)(=O)c1ccc(-c2c(Cn3c(=O)n(C4CC4)c4ccncc43)ncc3ccccc23)cc1 [Example 69d, 1-cyclopropyl-3-((4-(4-(methylsulfonyl)phenyl)isoquinolin-3-yl)methyl)-1H-imidazo[4,5-c]pyridin-2(3H)-one] | – |
| 7.82 | CNC1(C(=O)N2CC3(C2)C(=O)N(Cc2ncc4ccccc4c2-c2ccc(S(N)(=O)=O)nc2)c2ccccc23)CC1 [Example 123b, 5-(3-((1-(1-(methylamino)cyclopropanecarbonyl)-2′-oxospiro[azetidine-3,3′-indolin]-1′-yl)methyl)isoquinolin-4-yl)pyridine-2-sulfonamide] | – |
| 5.60 | CN1CCN(Cc2ccc3c(CCCCO)c(Cn4c(=O)n(C5CC5)c5ccncc54)ncc3c2)CC1 [Example 43j, 1-Cyclopropyl-3-((4-(4-hydroxybutyl)-7-((4-methylpiperazin-1-yl)methyl)isoquinolin-3-yl)methyl)-1H-imidazo[4,5-c]pyridin-2(3H)-one] | – |
